Laboratory results reported in patent publication US20090054504A1 (KNOPP NEUROSCIENCES, INC., priority 2007, published 2009).
“And” between values parts separate entries of the source, which are not always exact repeats. Equal entries are not always repeated. Where two headings read alike, the source gives them in different places.

Experiments:
[1] = target: human cloned dopamine receptors (D3) (Homo sapiens, UniProt P35462); assay: biochemical
Method: (§1) These concentrations were tested in cell lines expressing select human cloned dopamine receptors (D2S, D3).

D2 dopamine receptor = assay: D2 binding affinity from journal publications (Schneider & Mierau 1987; Wong & Shrikhande 2003); details: range over the literature sources
D1 dopamine receptor = D1 dopamine receptor (Homo sapiens, UniProt P21728); details: literature and own data
Chain of D1 dopamine receptor (P21728 whole entry): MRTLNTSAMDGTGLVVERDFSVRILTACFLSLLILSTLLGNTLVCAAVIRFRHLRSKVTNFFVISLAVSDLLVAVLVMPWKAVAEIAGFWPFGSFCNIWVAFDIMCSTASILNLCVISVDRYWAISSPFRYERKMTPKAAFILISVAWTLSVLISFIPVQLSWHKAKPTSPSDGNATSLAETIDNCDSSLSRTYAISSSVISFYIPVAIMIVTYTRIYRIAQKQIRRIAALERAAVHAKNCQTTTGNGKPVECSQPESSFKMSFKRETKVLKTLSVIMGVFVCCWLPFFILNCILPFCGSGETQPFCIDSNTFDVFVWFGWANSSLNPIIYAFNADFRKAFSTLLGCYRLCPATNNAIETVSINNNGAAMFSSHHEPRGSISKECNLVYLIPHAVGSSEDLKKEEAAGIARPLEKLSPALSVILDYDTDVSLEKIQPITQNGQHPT
Method: as §1

D5 dopamine receptor = D5 dopamine receptor (Homo sapiens, UniProt P21918); details: literature and own data
Chain of D5 dopamine receptor (P21918 whole entry): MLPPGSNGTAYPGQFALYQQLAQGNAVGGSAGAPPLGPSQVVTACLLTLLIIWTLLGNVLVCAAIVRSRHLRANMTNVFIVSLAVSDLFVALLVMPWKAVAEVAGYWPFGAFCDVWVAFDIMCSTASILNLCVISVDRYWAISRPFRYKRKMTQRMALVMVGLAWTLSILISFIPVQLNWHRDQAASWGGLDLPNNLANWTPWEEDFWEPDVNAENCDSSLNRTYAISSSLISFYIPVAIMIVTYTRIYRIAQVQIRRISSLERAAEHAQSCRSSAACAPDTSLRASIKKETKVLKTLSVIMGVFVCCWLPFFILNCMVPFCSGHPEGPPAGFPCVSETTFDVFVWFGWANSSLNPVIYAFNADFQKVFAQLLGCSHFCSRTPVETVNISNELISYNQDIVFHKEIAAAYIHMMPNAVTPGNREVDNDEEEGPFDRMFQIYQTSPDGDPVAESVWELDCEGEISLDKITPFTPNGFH
Method: as §1

rats [2] = system: rats
Method: 3.3—Toxicology Studies. […] Following this study, 3- and 6-month repeat dose toxicology studies were completed at doses of 30, 100, and 300 mg/kg.

clinical [3] = details: human, blood, oral
Method: (§2) Safety observations included vital signs, physical examination, clinical laboratory tests, ECGs, and adverse event reporting. Blood and urine samples were collected pre-dose and for 72 hours post-dose to assess the pharmacokinetics.

healthy adult volunteers [4] = assay: clinical; details: for CL/F / Ue / Fe / λZ: mean ± SD
Method: as §2

[5] = system: non-naïve male beagle dogs
Method: Doses were administered orally by gavage and clinical observations were taken continuously following dosing: hourly for the first four hours, and then twice daily cage-side observations for the duration of the inter-dose or post-dose interval. Observations were made of clinical signs, mortality, injury and availability of food and water. Animals were fasted for 24 hr prior to dosing. Dogs in each group were exposed to only one drug, or the combination; each dose was administered only once, with a subsequent dose administered after a recovery period of 4 days.

rats [6] = details: 6-month study, any dose level
minipigs [7] = details: both, minipig, in vivo, 14 days
Method: (§3) The 3- and 6-month repeat dose studies have now been completed at the 7.5, 25 and 50 mg/kg dose levels and the 9-month repeat dose study is ongoing.

minipigs [8] = system: minipigs
minipigs [9] = details: 6-month study, any dose level
minipigs [10] = details: past month 7, any dose level
healthy adult volunteers [11] = system: healthy adult volunteers
Method: (§4) The first panel was administered a single IR dose of 50 mg, followed 48 hours later by 4½ days of multiple IR dosing (twice daily) at 50 mg Q12 hours. The second panel was administered a single IR dose of 100 mg, followed 48 hours later by 4½ days of multiple IR dosing (twice daily) at 100 mg Q12 hours. Safety observations included vital signs, physical examination, clinical laboratory tests, ECGs, and adverse event reporting. Blood samples were collected pre-dose on Day 1 and serially for 48 hours post-dose to assess the single-dose pharmacokinetics.

in vivo = details: both, minipig
Method: as §3

clinical [12] = details: human, oral, Fasted; for Cmax: mean ± SD; for Tmax: median
Method: as §4

[13] = CL002, 50 mg Q12H (Day 1), Fasted, mean ± SD
[14] = CL002, 50 mg Q12H (Day 7), Fasted, mean ± SD
[15] = CL002, 100 mg Q12H (Day 1), Fasted, mean ± SD
[16] = CL002, 100 mg Q12H (Day 7), Fasted, mean ± SD
[17] = Day 1, 50 mg IR oral, fasted, mean ± SD
[18] = Day 1, 100 mg IR oral, fasted, mean ± SD
[19] = Day 7, 50 mg after Q12H Days 3-6, fasted, mean ± SD
[20] = Day 7, 100 mg after Q12H Days 3-6, fasted, mean ± SD
[21] = blood, 50 mg, CL002, 50 mg Q12H (Day 1)
[22] = blood, 50 mg, CL002, 50 mg Q12H (Day 7)
[23] = in vivo, 100 mg, CL002, 100 mg Q12H (Day 1)
[24] = in vivo, 100 mg, CL002, 100 mg Q12H (Day 7)

Chain of human cloned dopamine receptors (D3) (P35462 whole entry): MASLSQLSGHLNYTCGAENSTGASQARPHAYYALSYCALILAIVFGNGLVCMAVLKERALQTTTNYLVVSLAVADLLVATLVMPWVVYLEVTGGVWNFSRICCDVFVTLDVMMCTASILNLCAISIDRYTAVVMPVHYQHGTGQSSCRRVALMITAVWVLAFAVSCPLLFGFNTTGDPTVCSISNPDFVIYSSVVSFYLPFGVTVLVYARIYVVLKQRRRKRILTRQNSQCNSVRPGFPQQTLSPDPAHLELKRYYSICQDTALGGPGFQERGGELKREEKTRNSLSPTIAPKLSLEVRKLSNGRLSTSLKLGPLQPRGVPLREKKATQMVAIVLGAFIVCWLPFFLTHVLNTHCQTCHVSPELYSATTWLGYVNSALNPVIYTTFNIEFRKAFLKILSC

With CCCN[C@@H]1CCc2nc(N)sc2C1 [RPPX, (6R)-4,5,6,7-tetrahydro-N6-propyl-2,6-benzothiazole-diamine] the IC50 [1] was 610 nM, the “binding affinity of RPPX at the D2 receptor, times lower than PPX, literature” value (D2 dopamine receptor) was 10-20 times and 9-21 times and the “interaction with D1 dopamine receptors” value (D1 dopamine receptor) was “no significant interaction”. The “interaction with D5 dopamine receptors” value (D5 dopamine receptor) was “no significant interaction”, the “target organ toxicity by histopathology, 3-month study in rats” value (rats [2]; both, rat, in vivo, 300 mg/kg, 3 months) was “some target organ toxicity” and the “target organ toxicity by histopathology, 2-week study in rats” value (rats [2]; both, rat, in vivo, 14 days) was “No target organ toxicity”. The “mortality, 2-week study in rats” value (rats [2]; high dose of 500 mg/kg) was “caused mortality”, the Cmax (clinical [3]; 50 mg) was 125 ± 22 ng/mL and the Tmax (clinical [3]; 50 mg) was 2.04 h. It also gave a Cmax (clinical [3]; 150 mg) of 360 ± 60.4 ng/mL, a Tmax (clinical [3]; 150 mg) of 2.04 h and a Cmax (clinical [3]; 300 mg) of 781 ± 158 ng/mL. For the same molecule, the Tmax (clinical [3]; 300 mg) was 1.96 h, the CL/F (healthy adult volunteers [4]; CL001, 50 mg SD, Fasted) was 706 ± 182 mL/h and the Ue (healthy adult volunteers [4]; CL001, 50 mg SD, Fasted) was 35.3 ± 5.19 ^ mg. For the same molecule, the CL/F (healthy adult volunteers [4]; CL001, 150 mg SD, Fasted) was 692 ± 183 mL/h, the Ue (healthy adult volunteers [4]; CL001, 150 mg SD, Fasted) was 60.5 ± 7.04 ^ mg and the CL/F (healthy adult volunteers [4]; CL001, 150 mg SD, second 150 mg line, Food printed Fasted) was 774 ± 165 mL/h. The CL/F (healthy adult volunteers [4]; CL001, 300 mg SD, Fasted) was 659 ± 260 mL/h, the Ue (healthy adult volunteers [4]; CL001, 300 mg SD, Fasted) was 198 ± 28.0 ^ mg and the “Urinary excretion of unchanged drug, share of drug elimination” value (healthy adult volunteers [4]; across dose levels) was “approximately 70%”. The “subjects reporting at least one non-serious adverse event” value (healthy adult volunteers [4]; all 24 subjects (RPPX or placebo, blinded)) was 46%, the “subjects with mild dizziness (most frequent AE)” value (healthy adult volunteers [4]; all subjects (RPPX or placebo, blinded)) was 21% and the CL/F (healthy adult volunteers [4]; single oral 50 mg, fasted) was 706 ± 182 (6) mL/min. The Fe (healthy adult volunteers [4]; single oral 50 mg, fasted) was 70.7 ± 10.4 (6) % Dose, the Ue (healthy adult volunteers [4]; single oral 50 mg, fasted) was 35.3 ± 5.19 (6) mg and the λZ (healthy adult volunteers [4]; single oral 50 mg, fasted) was 0.1064 ± 0.0171 (6) h^−1. For the same molecule, the CL/F (healthy adult volunteers [4]; single oral 150 mg, fasted) was 692 ± 183 (5) mL/min, the Fe (healthy adult volunteers [4]; single oral 150 mg, fasted) was 40.3 ± 4.69 (6) % Dose and the Ue (healthy adult volunteers [4]; single oral 150 mg, fasted) was 60.5 ± 7.04 (6) mg. The λZ (healthy adult volunteers [4]; single oral 150 mg, fasted) was 0.1001 ± 0.0087 (5) h^−1, the CL/F (healthy adult volunteers [4]; single oral 150 mg, fed) was 774 ± 165 (6) mL/min and the λZ (healthy adult volunteers [4]; single oral 150 mg, fed) was 0.1152 ± 0.0256 (6) h^−1. For the same molecule, the CL/F (healthy adult volunteers [4]; single oral 300 mg, fasted) was 659 ± 260 (6) mL/min, the Fe (healthy adult volunteers [4]; single oral 300 mg, fasted) was 65.8 ± 9.33 (6) % Dose and the Ue (healthy adult volunteers [4]; single oral 300 mg, fasted) was 198 ± 28.0 (6) mg. For the same molecule, the λZ (healthy adult volunteers [4]; single oral 300 mg, fasted) was 0.1151 ± 0.0309 (6) h^−1, the “human equivalence dose of the dog MTD, for a 70 kg human subject” value ([5]; from dog data) was “about 3,000 mg” and the “observable effects in dogs” value ([5]; male, beagle, dog, in vivo, 4 days) was “no observable effects”. The “mortality between the 13-week and 26-week sacrifices, rats” value (rats [6]) was “no mortalities at any dose level”, the “target organ toxicity by histopathology, 2-week study in minipigs” value (minipigs [7]) was “No target organ toxicity” and the “mortality in repeat dose studies in minipigs” value (minipigs [8]; 75 mg/kg level, by month 2) was “mortalities”. The “target organ toxicity by histopathology after 3 months, minipigs” value (minipigs [8]; both, minipig, in vivo, 3 months) was “No target organ toxicity”, the “mortality / clinical observations between the 13-week and 26-week sacrifices, minipigs” value (minipigs [9]) was “no mortalities attributed to test article or significant clinical observations” and the “deaths / clinical observations, 9-month study in minipigs” value (minipigs [10]) was “no deaths attributed to test article or significant clinical observations”. The “increase of AUC(0-12) from Day 1 to Day 7” value (healthy adult volunteers [11]; 50 mg Q12H) was 40%, the “increase of Cmax from Day 1 to Day 7” value (healthy adult volunteers [11]; 50 mg Q12H) was 37% and the “increase of AUC(0-12) from Day 1 to Day 7” value (healthy adult volunteers [11]; 100 mg Q12H) was 38%. For the same molecule, the “increase of Cmax from Day 1 to Day 7” value (healthy adult volunteers [11]; 100 mg Q12H) was 24%, the “AUC (inf)” value (healthy adult volunteers [11]; [13]) was 1,502 ± 280 h*ng/mL and the “AUC(0-t)” value (healthy adult volunteers [11]; [13]) was 1,463 ± 280 h*ng/mL. For the same molecule, the “AUC(0−12)” value (healthy adult volunteers [11]; [13]) was 1,035 ± 121 h*ng/mL, the CL/F (healthy adult volunteers [11]; [13]) was 571 ± 107 mL/h and the “AUC(0−12)” value (healthy adult volunteers [11]; [14]) was 1,449 ± 221 h*ng/mL. The CL/F (healthy adult volunteers [11]; [14]) was 585 ± 81.6 mL/h, the “AUC(0-t)” value (healthy adult volunteers [11]; [15]) was 2,545 ± 497 h*ng/mL and the “AUC(0−12)” value (healthy adult volunteers [11]; [15]) was 1,776 ± 260 h*ng/mL. For the same molecule, the CL/F (healthy adult volunteers [11]; [15]) was 665 ± 107 mL/h, the “AUC(0−12)” value (healthy adult volunteers [11]; [16]) was 2,465 ± 299 h*ng/mL and the CL/F (healthy adult volunteers [11]; [16]) was 684 ± 76.1 mL/h. The CL/F (healthy adult volunteers [11]; [17]) was 571 ± 107 (6) mL/min, the λz (healthy adult volunteers [11]; [17]) was 0.1132 ± 0.0230 (6) h^−1 and the CL/F (healthy adult volunteers [11]; [18]) was 665 ± 107 (6) mL/min. For the same molecule, the λz (healthy adult volunteers [11]; [18]) was 0.1073 ± 0.0161 (6) h^−1, the CL/F (healthy adult volunteers [11]; [19]) was 585 ± 81.6 (6) mL/min and the λz (healthy adult volunteers [11]; [19]) was 0.1025 ± 0.0186 (6) h^−1. For the same molecule, the CL/F (healthy adult volunteers [11]; [20]) was 684 ± 76.1 (6) mL/min, the λz (healthy adult volunteers [11]; [20]) was 0.0894 ± 0.0117 (6) h^−1 and the NOAEL at 14 days (in vivo) was at least 75 mg/kg. For the same molecule, the Cmax (clinical [12]; [21]) was 139 ± 15.3 ng/mL, the Cmax (clinical [12]; [22]) was 191 ± 20.9 ng/mL and the Tmax (clinical [12]; [21]) was 1.83 h. For the same molecule, the Tmax (clinical [12]; [22]) was 1.75 h, the Cmax (clinical [12]; [23]) was 248 ± 30.4 ng/mL and the Cmax (clinical [12]; [24]) was 306 ± 55 ng/mL. For the same molecule, the Tmax (clinical [12]; [23]) was 1.92 h and the Tmax (clinical [12]; [24]) was 2 h.
